# Data reported in patent publication US20120107246A1, “METHOTREXATE-MODIFIED NANOPARTICLES AND RELATED METHODS” (WASHINGTON, UNIVERSITY OF, priority 2005, published 2012).
# Experiments:
# 9L cells = assay: leucovorin rescue of 9L cells exposed to free methotrexate; assay type: cell-based, rat
# From the text: Methotrexate induces apoptosis in cells through inhibition of the folic acid cycle by acting on the enzyme, dihydrofolate reductase (DHFR). The substitution of a […] at position four of the pteridine ring transforms the molecule from a substrate of DHFR to a tight binder. […] Leucovorin (folinic acid) is commonly used in high dose chemotherapy to rescue the folic acid cycle in healthy cells and reduce the deleterious side effect of the therapy. Leucovorin rescues the cell cycle by being actively metabolized into reduced folates, increasing the intracellular concentration of the reduced folates within the cytoplasm. […] Previous studies used leucovorin to rescue MCF-7 and HeLa cells following exposure to free methotrexate, but no studies have been reported in using leucovorin for the 9L cell line. Thus, the first step in this study was to determine whether the 9L cells would respond to leucovorin induced rescue following the cellular exposure to free methotrexate.
# [1] = in humans; cited from earlier work
# HeLa cells = assay: cell viability (surviving fraction) by cell count; settings: up to 120 hours in culture, nanoparticles 0.01-0.1 mg/mL iron, soluble methotrexate 2 μg/mL
# Experimental: Human breast cancer cells (MCF-7), and human cervical cancer cells (HeLa) were obtained from the Fred Hutchinson Cancer Research Center, Seattle, Wash. Cells were grown in T-75 flasks with RPMI Media (Invitrogen) supplemented with 10% fetal calf serum, 5958 mg/mL HEPES, 300 mg/mL L-Glutamine, 50 ug/mL streptomycin and 50 IU/mL penicillin. Cells were cultured at 37° C. in a humidified atmosphere with 5% CO2 with the medium being changed every third day. The cells were transferred to RPMI-1640 folate free medium (Invitrogen) 24 hours prior to plating. The cells were then subcultured in 24-well plates at a concentration of 25,000 cells/mL in RPMI-1640 folate-free medium. […] In addition, a control media containing soluble methotrexate was prepared at a concentration of 2 μg/mL. Cells were also cultured in 1 mL medium without nanoparticles as the control. The cell culture proceeded for 24, 48, 72, 96, and 120 hours respectively at which time, the cells were washed three times with 1 mL of Hank's Balanced Salt Solution (HBSS, Invitrogen), detached with 500 μL of 0.25% trypsin-EDTA (Sigma), and resuspended in 1 mL of Phosphate Buffered Saline (PBS) supplemented with 10% FBS. Cell viability was determined by cell count via a model Z1 Beckman particle counter.
Compound,"leucovorin concentration at which cells showed continued proliferation (9L cells; 9L cells after 2 hours exposure to methotrexate, 48 hours incubation with LV) [µg/mL]",sufficient concentration of LV to ensure cell rescue (9L cells; 9L cells after methotrexate exposure) [µg/mL],half-life [1] [h],reduction in cell viability / cytotoxicity (HeLa cells)
"Nc1nc2c(c(=O)[nH]1)N(C=O)C(CNc1ccc(C(=O)N[C@@H](CCC(=O)O)C(=O)O)cc1)CN2 (stereo partly shown) [leucovorin, Leucovorin (folinic acid)]",≥ 1,~10,,
"CN(Cc1cnc2nc(N)nc(N)c2n1)c1ccc(C(=O)N[C@@H](CCC(=O)O)C(=O)O)cc1 [methotrexate, Methotrexate]",,,2 to 3,slightly higher cytotoxicity
